In US12594282B2, “Use of small molecule compounds in the treatment of diseases mediated by lung epithelial cell injury and/or vascular endothelial cell injury” (Guangzhou Cellprotek Pharmaceutical Co., Ltd., priority 2020, dated 2026):

How the values were obtained:
[1] = tested on: Human umbilical vein endothelial cells (HUVEC); test: OGD-R injury model, LDH detection, HUVEC; assay type: cell-based; details: OGD 4 hours, restoration 24 hours, 1, 3, 10 μM, prophylactic (1 hour before OGD) or therapeutic (at restoration)
Experimental: HUVEC cells were cultured in modified DMEM medium containing 10% fetal bovine serum. When the cells reached about 80% confluence, the cells were digested with 0.25% trypsin, and then pipetted evenly with modified DMEM containing 10% fetal bovine serum. The cell concentration was adjusted to 1×10^5 cells/mL, and the cells were seeded at 400 uL/well in a 24-well plate, and the experiment was carried out when the cells grew to about 70% confluence. RAOEC cells were cultured in high-glucose DMEM medium containing 10% fetal bovine serum, and the seeding conditions were the same as those for HUVECs.
The hypoxia workstation was set to have an oxygen concentration of 1% (1% O2, 5% CO2, 94% N2), a temperature of 37° C., and a humidity of 85%. A sugar-free DMEM medium was placed in the hypoxia workstation for pre-hypoxia for 3 hours. The medium in the culture plate was aspirated, and the plate was washed twice with preheated sugar-free DMEM medium, and 100 uL of sugar-free DMEM medium was added to each well. […]
At the end of the experiment, 50 uL of medium was taken from each well into a 96-well plate, and then cytotoxicity was detected according to the operating instructions of the LDH detection kit. The results were calculated as follows: […]

PFKFB3 = test: Glutamate-induced PFKFB3 expression in primary cerebellar granule neurons (Western blot); assay type: cell-based, mice; details: 10 μM, pre-incubation 20 mins; 200 μM glutamate for 5 mins and 15 mins
Experimental: The cells were obtained from SD P7-8 neonatal mice. The cerebellum was taken, and the meninges and blood vessels were removed using microtweezers; the isolated cerebellar tissue was transferred to another dish containing dissection solution. The tissue was cut into pieces as small as possible using a tissue scissor. Digestion: The tissue in pieces was added into 7 mL of 0.25% trypsin digestive solution with a pipet, and was digested at 37° C. for 15 mins; the bench surface was cleaned and the instruments were washed. The container was turned upside down several times every five minutes to bring the tissue into better contact with the digestive solution. End of digestion: After the digestion, it can be seen that the tissue was sticked together and suspended in the liquid due to cell disruption and release of DNA. The digestion was terminated by adding 3 mL of […] 10% FBS DMEM medium. The container was turned upside down several times, and it can be observed that the remaining tissue dispersed due to DNA hydrolysis. Centrifugation was performed at 1000 rpm for 5 mins. As much supernatant as possible was carefully removed. Collection of single cell suspension: 7 mL of DNase-containing 10% FBS DMEM medium was taken with a pipet, by which the tissue pellet was gently pipeted. […] The cells were counted with a hand-held cell counter, and the seeding density was 4.0-5.0×10^5 cells/mL. […]

With `C[C@@]12CCCC1C1C[C@@H](O)[C@]3(O)C[C@@H](O)CC[C@]3(C)C1CC2` (stereo partly drawn) [YC-6, 5α-androst-3β,5,6β-triol] the “OGD-R-induced increase in LDH release” value [1] was “significantly reduced the OGD-R-induced increase in LDH release in a dose-dependent manner” and the “glutamate-induced up-regulation of intracellular PFKFB3 expression” value (PFKFB3) was “significantly inhibited this rapid increase”.
